Counter-ions that a name gives are not always drawn. Like-named read-outs stand apart in the source and are kept apart here.
Molecular target: T1, Rec. human COMT (Homo sapiens, UniProt P21964)
T1 sequence (P21964 1-271): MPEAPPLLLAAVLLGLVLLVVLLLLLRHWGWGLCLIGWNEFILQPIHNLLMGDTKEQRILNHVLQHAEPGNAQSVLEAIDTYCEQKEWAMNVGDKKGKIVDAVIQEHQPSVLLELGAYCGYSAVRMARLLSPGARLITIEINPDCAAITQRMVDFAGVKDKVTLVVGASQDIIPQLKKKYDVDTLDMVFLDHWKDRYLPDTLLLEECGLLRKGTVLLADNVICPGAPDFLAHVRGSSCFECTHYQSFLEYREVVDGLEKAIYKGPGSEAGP
Test: COMT-Fluorescence Assay
Type: biochemical
Conditions: rec. human COMT 25 nM, 4-Nitrocatechol-Alexa488 200 nM, SAM 500 nM
Experimental: This intramolecular interaction is disturbed if the 4-Nitrocatechol is methylated. […] This increase of fluorescence intensity can be followed in a kinetic measurement. The slope in the linear range of the kinetic is calculated. An inhibitor compound decreases the slope.
Signal [rfu/min]=(rfu(end-point)−rfu(startpoint))/incubation_time_#2

[1] = COMT-fluorescence assay, read-out: IC50

| Structure (SMILES) | IC50 [1] | IC50 (IC50, COMT-fluorescence assay) |
| --- | --- | --- |
| O=c1[nH]cnc2c(O)c(F)c(-c3ccc(F)cc3)c(-c3ccc(F)cc3)c12 [Example 123, 7-Fluoro-5,6-bis(4-fluorophenyl)-8-hydroxyquinazolin-4(3H)-one] | 10 nM | – |
| COc1ccc(-c2cc(O)c3nc[nH]c(=O)c3c2)cn1 [Example 163, 8-Hydroxy-6-(6-methoxypyridin-3-yl)quinazolin-4(3H)-one] | 40 nM | – |
| O=c1[nH]cnc2c(O)cc(Br)c(C(F)(F)F)c12 [Example 41, 6-Bromo-8-hydroxy-5-(trifluoromethyl)quinazolin-4(3H)-one] | 160 nM | – |
| Cc1ccc(C(=O)c2cc(O)c3nc[nH]c(=O)c3c2)cc1 [Example 66, 8-Hydroxy-6-(4-methylbenzoyl)quinazolin-4(3H)-one] | 100 nM | – |
| CN1CCN(CCOCc2ccccc2-c2cc(O)c3nc[nH]c(=O)c3c2)CC1 [Example 240, 8-Hydroxy-6-(2-((2-(4-methylpiperazin-1-yl)ethoxy)methyl)phenyl)quinazolin-4(3H)-one] | 30 nM | – |
| CN1CCN(c2cc(O)c3nc[nH]c(=O)c3c2)CC1 [Example 190, 8-Hydroxy-6-(4-methyl-piperazin-1-yl)-3H-quinazolin-4-one] | – | 1290 nM |
| CN1CC=C(c2c(-c3ccc(F)cc3)cc(O)c3nc[nH]c(=O)c23)CC1 [Example 61, 6-(4-Fluorophenyl)-8-hydroxy-5-(1-methyl-1,2,3,6-tetrahydropyridin-4-yl)quinazolin-4(3H)-one] | – | 130 nM |
| O=c1[nH]cnc2c(O)cc(-c3cccc(N4CCOCC4)c3)cc12 [Example 146, 8-Hydroxy-6-(3-morpholinophenyl)quinazolin-4(3H)-one] | – | 20 nM |
| O=c1[nH]cnc2c(O)cc(Br)cc12 [Example 126, 6-Bromo-8-hydroxyquinazolin-4(3H)-one] | 140 nM | – |
| O=c1[nH]cnc2c(O)cc(-c3ccccc3COCCC3CCN(CC(F)(F)F)CC3)cc12 [Example 118, 8-Hydroxy-6-(2-((2-(1-(2,2,2-trifluoroethyl)piperidin-4-yl)ethoxy)methyl)phenyl)quinazolin-4(3H)-one 2,2,2-trifluoroacetate] | 10 nM | – |
| COc1ccc(C(F)(F)F)cc1-c1cc(O)c2nc[nH]c(=O)c2c1 [Example 26, 8-Hydroxy-6-(2-methoxy-5-(trifluoromethyl)phenyl)quinazolin-4(3H)-one] | 190 nM | – |
| O=c1[nH]cnc2c(O)cc(-c3ccccc3CO)c(Cl)c12 [Example 255, 5-Chloro-8-hydroxy-6-(2-hydroxymethyl-phenyl)-3H-quinazolin-4-one] | 120 nM | – |
| O=c1[nH]cnc2c(O)cc(-c3ccccc3OCc3ccccc3)cc12 [Example 227, 6-(2-(Benzyloxy)phenyl)-8-hydroxyquinazolin-4(3H)-one] | 50 nM | – |
| O=C(c1cc(O)c2nc[nH]c(=O)c2c1)N1CCOCC1 [Example 3, 8-Hydroxy-6-(morpholine-4-carbonyl)quinazolin-4(3H)-one] | 4210 nM | – |
| Cc1cscc1-c1cc(O)c2nc[nH]c(=O)c2c1 [Example 164, 8-Hydroxy-6-(4-methylthiophen-3-yl)quinazolin-4(3H)-one] | 20 nM | – |
| O=c1[nH]cnc2c(O)cc(-c3ccc4c(c3)OCCO4)cc12 [Example 176, 6-(2,3-Dihydrobenzo[b][1,4]dioxin-6-yl)-8-hydroxyquinazolin-4(3H)-one] | 20 nM | – |
| CS(=O)(=O)CCc1ccccc1-c1cc(O)c2nc[nH]c(=O)c2c1 [Example 116, 8-Hydroxy-6-(2-(2-(methylsulfonyl)ethyl)phenyl)quinazolin-4(3H)-one 2,2,2-trifluoroacetate] | 180 nM | – |
| O=C(c1cccc(-c2cc(O)c3nc[nH]c(=O)c3c2)c1)N1CCS(=O)(=O)CC1 [Example 192, 6-[3-(1,1-Dioxo-1λ^6-thiomorpholine-4-carbonyl)-phenyl]-8-hydroxy-3H-quinazolin-4-one] | 20 nM | – |
| COc1ccc(-c2cc(O)c3nc[nH]c(=O)c3c2)cc1 [Example 135, 8-Hydroxy-6-(4-methoxy-phenyl)-3H-quinazolin-4-one] | – | 10 nM |
| O=c1[nH]cnc2c(O)cc(-c3ccccc3-c3ccccc3)cc12 [Example 214, 6-(Biphenyl-2-yl)-8-hydroxyquinazolin-4(3H)-one] | 640 nM | – |
| CN(C)c1ccc(/N=N/c2ccccc2)c(-c2cc(O)c3nc[nH]c(=O)c3c2)c1 [Example 29, (E)-6-(5-(Dimethylamino)-2-(phenyldiazenyl)phenyl)-8-hydroxyquinazolin-4(3H)-one] | 2800 nM | – |
| O=c1[nH]cnc2c(O)c(F)cc(-c3ccc(F)cc3)c12 [Example 124, 7-Fluoro-5-(4-fluorophenyl)-8-hydroxyquinazolin-4(3H)-one] | 200 nM | – |

| Structure (SMILES) | IC50 [1] | IC50 (IC50, COMT-fluorescence assay) |
| --- | --- | --- |
| CS(=O)(=O)c1ccc(-c2c(-c3ccc(F)cc3)cc(O)c3nc[nH]c(=O)c23)cc1 [Example 57, 6-(4-Fluorophenyl)-8-hydroxy-5-(4-(methylsulfonyl)phenyl)quinazolin-4(3H)-one] | 10 nM | – |
| Cc1ccc(-c2ccc(C(F)(F)F)cc2)c(-c2cc(O)c3nc[nH]c(=O)c3c2)c1 [Example 30, 8-Hydroxy-6-(4-methyl-4′-(trifluoromethyl)biphenyl-2-yl)quinazolin-4(3H)-one] | 1400 nM | – |
| CC(C)N(C(=O)c1ccccc1-c1cc(O)c2nc[nH]c(=O)c2c1)C(C)C [Example 226, 2-(8-Hydroxy-4-oxo-3,4-dihydroquinazolin-6-yl)-N,N-diisopropylbenzamide] | 1030 nM | – |
| N#Cc1ccccc1-c1cc(O)c2nc[nH]c(=O)c2c1 [Example 207, 2-(8-Hydroxy-4-oxo-3,4-dihydroquinazolin-6-yl)benzonitrile] | 20 nM | – |
| O=C(Nc1c(-c2ccc(F)cc2)cc(O)c2nc[nH]c(=O)c12)c1ccccc1 [Example 254, N-(6-(4-Fluorophenyl)-8-hydroxy-4-oxo-3,4-dihydroquinazolin-5-yl)benzamide] | 1400 nM | – |
| Cc1nc(-c2ccccc2)sc1-c1cc(O)c2nc[nH]c(=O)c2c1 [Example 203, 8-Hydroxy-6-(4-methyl-2-phenylthiazol-5-yl)quinazolin-4(3H)-one] | 10 nM | – |
| O=c1[nH]cnc2c(O)cc(-c3ccc(N4CCOCC4)cc3)cc12 [Example 142, 8-Hydroxy-6-(4-morpholin-4-yl-phenyl)-3H-quinazolin-4-one] | – | 10 nM |
| Cc1ccc(-c2cc(O)c3nc[nH]c(=O)c3c2)cn1 [Example 166, 8-Hydroxy-6-(6-methylpyridin-3-yl)quinazolin-4(3H)-one] | 60 nM | – |
| CN1CCN(C(=O)c2cccc(-c3cc(O)c4nc[nH]c(=O)c4c3)c2)CC1 [Example 191, 8-Hydroxy-6-[3-(4-methyl-piperazine-1-carbonyl)-phenyl]-3H-quinazolin-4-one] | 30 nM | – |
| CN(C)c1cccc(-c2cc(O)c3nc[nH]c(=O)c3c2)c1 [Example 148, 6-(3-Dimethylamino-phenyl)-8-hydroxy-3H-quinazolin-4-one] | 10 nM | – |
| O=c1[nH]cnc2c(O)ccc(Cl)c12 [Example 143, 5-Chloro-8-hydroxyquinazolin-4(3H)-one] | 810 nM | – |
| O=c1[nH]cnc2c(O)cc(-c3cccc(N4CCOCC4)n3)cc12 [Example 62, 8-Hydroxy-6-(6-morpholinopyridin-2-yl)quinazolin-4(3H)-one] | 10 nM | – |
| CN(C)CCOCc1ccccc1-c1cc(O)c2nc[nH]c(=O)c2c1 [Example 241, 6-(2-((2-(Dimethylamino)ethoxy)methyl)phenyl)-8-hydroxyquinazolin-4(3H)-one] | 30 nM | – |
| O=c1[nH]cnc2c(O)cc(Br)c([N+](=O)[O-])c12 [Example 44, 6-Bromo-8-hydroxy-5-nitro-3H-quinazolin-4-one] | 110 nM | – |
| CN1CCN(C(=O)c2cc(-c3cc(O)c4nc[nH]c(=O)c4c3)n(C)n2)CC1 [Example 230, 8-Hydroxy-6-(1-methyl-3-(4-methylpiperazine-1-carbonyl)-1H-pyrazol-5-yl)quinazolin-4(3H)-one formate] | 20 nM | – |
| Cc1ncccc1-c1cc(O)c2nc[nH]c(=O)c2c1F [Example 198, 5-Fluoro-8-hydroxy-6-(2-methylpyridin-3-yl)quinazolin-4(3H)-one] | 10 nM | – |
| CN1CCc2cc(-c3cc(O)c4nc[nH]c(=O)c4c3)ccc21 [Example 40, 8-Hydroxy-6-(1-methylindolin-5-yl)quinazolin-4(3H)-one 1:1 salt with trifluoroacetate] | – | 10 nM |
| O=c1[nH]cnc2c(O)cc(-c3ccc(N4CCNCC4)nc3)cc12 [Example 184, 8-Hydroxy-6-(6-(piperazin-1-yl)pyridin-3-yl)quinazolin-4(3H)-one] | 20 nM | – |
| N#Cc1ccc(Cl)c(-c2cc(O)c3nc[nH]c(=O)c3c2)c1 [Example 27, 4-Chloro-3-(8-hydroxy-4-oxo-3,4-dihydroquinazolin-6-yl)benzonitrile] | 40 nM | – |
| COc1cccc(Cc2cc(O)c3nc[nH]c(=O)c3c2)c1 [Example 15, 8-Hydroxy-6-(3-methoxybenzyl)quinazolin-4(3H)-one] | 1200 nM | – |
| O=c1[nH]cnc2c(O)cc(-c3ccc(F)c(F)c3F)cc12 [Example 31, 8-Hydroxy-6-(2,3,4-trifluoro-phenyl)-3H-quinazolin-4-one] | 20 nM | – |
| Cc1cc(C(=O)N2CCN(C)CC2)sc1-c1cc(O)c2nc[nH]c(=O)c2c1 [Example 103, 8-Hydroxy-6-[3-methyl-5-(4-methyl-piperazine-1-carbonyl)-thiophen-2-yl]-3H-quinazolin-4-one] | 10 nM | – |

Source: patent US9656971B2, “COMT inhibitors” (Hoffmann-La Roche Inc., priority 2012, dated 2017)
